Reference: patent publication US8729089B2 (Gilead Sciences, Inc., priority 2006, dated 2014)

Columns and labels:
[1] = test system: HCV replicon in human hepatoma Huh-7 cell line; experiment: Anti-HCV replicon assay (EC50, luciferase); type: cell-based; conditions: Hepatitis C virus, Huh-7, 72 h
Summary of the method: (§1)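 Cytotoxicity (CC50) measured by CellTiter-Glo and antiviral activity (EC50) by luciferase signal from lysed cells, both by luminescence. Replicon-bearing Huh-7 cells, 6000 per well, incubated 3 days at 37 °C with threefold-diluted compound (0.5% DMSO for DMSO-dissolved compounds).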

[2] = CC50 assay (CellTiter-Glo) in Huh-7 HCV replicon cells; type: cell-based, human; conditions: human, 3 days incubation, CellTiter-Glo readout
Summary of the method: as §1

Row | SMILES | EC50 [1] [µM] | CC50 at 3 days [2] [µM]
1 | Cc1noc(C)c1-c1ccc2nc(NCc3ccc(S(N)(=O)=O)cc3)nc(NCC(F)(F)F)c2n1 [Example 165, 4-{[6-(3,5-Dimethyl-isoxazol-4-yl)-4-(2,2,2-trifluoro-ethylamino)-pyrido[3,2-d]pyrimidin-2-ylamino]-methyl}-benzenesulfonamide] | < 0.1 | < 5
2 | Cn1cc(-c2ccc3nc(NCc4ccc(S(N)(=O)=O)cc4)nc(NCC(F)(F)F)c3n2)cn1 [Example 166, 4-{[6-(1-Methyl-1H-pyrazol-4-yl)-4-(2,2,2-trifluoro-ethylamino)-pyrido[3,2-d]pyrimidin-2-ylamino]-methyl}-benzenesulfonamide] | < 0.1 | > 25
3 | NS(=O)(=O)c1ccc(CNc2nc(NCC(F)(F)F)c3nc(-c4cnc(N5CCCC5)cn4)ccc3n2)cc1 [Example 167, 4-{[6-(5-Pyrrolidin-1-yl-pyrazin-2-yl)-4-(2,2,2-trifluoro-ethylamino)-pyrido[3,2-d]pyrimidin-2-ylamino]-methyl}-benzenesulfonamide] | < 0.1 | < 5
4 | NS(=O)(=O)c1ccc(CNc2nc(NCC(F)(F)F)c3nc(-c4ccnc(C(F)(F)F)c4)ccc3n2)cc1 [Example 168, 4-{[4-(2,2,2-Trifluoro-ethylamino)-6-(2-trifluoromethyl-pyridin-4-yl)-pyrido[3,2-d]pyrimidin-2-ylamino]-methyl}-benzenesulfonamide] | < 0.1 | > 25
5 | Nc1cc(-c2ccc3nc(NCc4ccc(S(N)(=O)=O)cc4)nc(NCC(F)(F)F)c3n2)ccn1 [Example 169, 4-{[6-(2-Amino-pyridin-4-yl)-4-(2,2,2-trifluoro-ethylamino)-pyrido[3,2-d]pyrimidin-2-ylamino]-methyl}-benzenesulfonamide] | < 0.1 | > 25
6 | NS(=O)(=O)c1ccc(CNc2nc(NCC(F)(F)F)c3nc(-c4csc(N5CCCC5)n4)ccc3n2)cc1 [Example 170, 4-{[6-(2-Pyrrolidin-1-yl-thiazol-4-yl)-4-(2,2,2-trifluoro-ethylamino)-pyrido[3,2-d]pyrimidin-2-ylamino]-methyl}-benzenesulfonamide] | < 0.1 | < 5
7 | NS(=O)(=O)c1ccc(CNc2nc(NCC(F)(F)F)c3nc(-c4ccc(O)cc4)ccc3n2)cc1 [Example 171, 4-{[6-(4-Hydroxy-phenyl)-4-(2,2,2-trifluoro-ethylamino)-pyrido[3,2-d]pyrimidin-2-ylamino]-methyl}-benzenesulfonamide] | < 0.1 | > 25
8 | COc1cc(-c2ccc3nc(NCc4ccc(S(N)(=O)=O)cc4)nc(NCC(F)(F)F)c3n2)ccn1 [Example 172, 4-{[6-(2-Methoxy-pyridin-4-yl)-4-(2,2,2-trifluoro-ethylamino)-pyrido[3,2-d]pyrimidin-2-ylamino]-methyl}-benzenesulfonamide] | < 0.1 | 5 to 25
9 | N#Cc1cc(-c2ccc3nc(NCc4ccc(S(N)(=O)=O)cc4)nc(NCC(F)(F)F)c3n2)ccn1 [Example 173, 4-{[6-(2-Cyano-pyridin-4-yl)-4-(2,2,2-trifluoro-ethylamino)-pyrido[3,2-d]pyrimidin-2-ylamino]-methyl}-benzenesulfonamide] | < 0.1 | > 25
10 | Nc1ncc(-c2ccc3nc(NCc4ccc(S(N)(=O)=O)cc4)nc(NCC(F)(F)F)c3n2)cn1 [Example 174, 4-{[6-(2-Amino-pyrimidin-5-yl)-4-(2,2,2-trifluoro-ethylamino)-pyrido[3,2-d]pyrimidin-2-ylamino]-methyl}-benzenesulfonamide] | < 0.1 | > 25
11 | N#Cc1cccc(-c2ccc3nc(NCc4ccc(S(N)(=O)=O)cc4)nc(NCC(F)(F)F)c3n2)c1 [Example 175, 4-{[6-(3-Cyano-phenyl)-4-(2,2,2-trifluoro-ethylamino)-pyrido[3,2-d]pyrimidin-2-ylamino]-methyl}-benzenesulfonamide] | < 0.1 | > 25
12 | CN1CC[C@H](C(=O)Nc2ccc(-c3ccc4nc(NCc5ccc(S(N)(=O)=O)cc5)nc(OC5CC5)c4n3)cc2)C1 [Example 176, 1-Methyl-pyrrolidine-3-carboxylic acid {4-[4-cyclopropoxy-2-(4-sulfamoyl-benzylamino)-pyrido[3,2-d]pyrimidin-6-yl]-phenyl}-amide] | < 0.1 | > 25
13 | CN1CC[C@H](C(=O)Nc2ccc(-c3ccc4nc(NCc5ccc(S(N)(=O)=O)cc5)nc(NCC(F)(F)F)c4n3)cc2F)C1 [Example 177, 1-Methyl-pyrrolidine-3-carboxylic acid {2-fluoro-4-[2-(4-sulfamoyl-benzylamino)-4-(2,2,2-trifluoro-ethylamino)-pyrido[3,2-d]pyrimidin-6-yl]-phenyl}-amide] | < 0.1 | 5 to 25
14 | CN1CC[C@H](C(=O)Nc2ccc(-c3ccc4nc(NCc5ccc(S(N)(=O)=O)cc5)nc(NCC(F)(F)F)c4n3)cc2)C1 [Example 178, 1-Methyl-pyrrolidine-3-carboxylic acid {4-[2-(4-sulfamoyl-benzylamino)-4-(2,2,2-trifluoro-ethylamino)-pyrido[3,2-d]pyrimidin-6-yl]-phenyl}-amide] | < 0.1 | 5 to 25
15 | NS(=O)(=O)c1ccc(CNc2nc(NCC(F)(F)F)c3nc(-c4ccc(N5CCC(O)C5=O)cc4)ccc3n2)cc1 (stereo not drawn) [Example 179, 4-{[6-[4-(3-Hydroxy-2-oxo-pyrrolidin-1-yl)-phenyl]-4-(2,2,2-trifluoro-ethylamino)-pyrido[3,2-d]pyrimidin-2-ylamino]-methyl}-benzenesulfonamide] | < 0.1 | > 25
16 | NS(=O)(=O)c1ccc(CNc2nc(NCC(F)(F)F)c3nc(-c4ccc(NC(=O)C5(O)CC5)cc4)ccc3n2)cc1 [Example 180, 1-Hydroxy-cyclopropanecarboxylic acid {4-[2-(4-sulfamoyl-benzylamino)-4-(2,2,2-trifluoro-ethylamino)-pyrido[3,2-d]pyrimidin-6-yl]-phenyl}-amide] | < 0.1 | > 25
17 | NS(=O)(=O)c1ccc(CNc2nc(NC3CC3)c3nc(-c4ccc(NC(=O)C5(O)CC5)cc4)ccc3n2)cc1 [Example 181, 1-Hydroxy-cyclopropanecarboxylic acid {4-[4-cyclopropylamino-2-(4-sulfamoyl-benzylamino)-pyrido[3,2-d]pyrimidin-6-yl]-phenyl}-amide] | < 0.1 | < 5
18 | N[C@@H](CO)C(=O)Nc1ccc(-c2ccc3nc(NCc4ccc(S(N)(=O)=O)cc4)nc(NC4CC4)c3n2)cc1 [Example 182, 2-Amino-N-{4-[4-cyclopropylamino-2-(4-sulfamoyl-benzylamino)-pyrido[3,2-d]pyrimidin-6-yl]-phenyl}-3-hydroxy-propionamide] | < 0.1 | 5 to 25
19 | Nc1ncc(-c2ccc3nc(NCc4ccc(S(N)(=O)=O)cc4)nc(NC4CC4)c3n2)s1 [Example 183, 4-{[6-(2-Amino-thiazol-5-yl)-4-cyclopropylamino-pyrido[3,2-d]pyrimidin-2-ylamino]-methyl}-benzenesulfonamide] | < 0.1 | 5 to 25
20 | NS(=O)(=O)c1ccc(CNc2nc(NC3CC3)c3nc(-c4ccc(F)c(NS(=O)(=O)C5CC5)c4)ccc3n2)cc1 [Example 184, 4-{[6-(3-Cyclopropanesulfonylamino-4-fluoro-phenyl)-4-cyclopropylamino-pyrido[3,2-d]pyrimidin-2-ylamino]-methyl}-benzenesulfonamide] | < 0.1 | < 5
21 | NS(=O)(=O)c1ccc(CNc2nc(NC3CC3)c3nc(-c4ccc(C(=O)NC5CC5)cc4)ccc3n2)cc1 [Example 185, N-Cyclopropyl-4-[4-cyclopropylamino-2-(4-sulfamoyl-benzylamino)-pyrido[3,2-d]pyrimidin-6-yl]-benzamide] | < 0.1 | 5 to 25
22 | NC(=O)c1ccc(-c2ccc3nc(NCc4ccc(S(N)(=O)=O)cc4)nc(NC4CC4)c3n2)cc1 [Example 186, 4-[4-Cyclopropylamino-2-(4-sulfamoyl-benzylamino)-pyrido[3,2-d]pyrimidin-6-yl]-benzamide] | < 0.1 | > 25
23 | Nc1cnc(-c2ccc3nc(NCc4ccc(S(N)(=O)=O)cc4)nc(NCC(F)(F)F)c3n2)cn1 [Example 187, 4-{[6-(5-Amino-pyrazin-2-yl)-4-(2,2,2-trifluoro-ethylamino)-pyrido[3,2-d]pyrimidin-2-ylamino]-methyl}-benzenesulfonamide] | < 0.1 | > 25
24 | Nc1ncc(-c2ccc3nc(NCc4ccc(S(N)(=O)=O)cc4)nc(NCC(F)(F)F)c3n2)s1 [Example 188, 4-{[6-(2-Amino-thiazol-5-yl)-4-(2,2,2-trifluoro-ethylamino)-pyrido[3,2-d]pyrimidin-2-ylamino]-methyl}-benzenesulfonamide] | < 0.1 | 5 to 25
25 | NS(=O)(=O)c1ccc(CNc2nc(NCC(F)(F)F)c3nc(-c4cn[nH]c4)ccc3n2)cc1 [Example 189, 4-{[6-(1H-Pyrazol-4-yl)-4-(2,2,2-trifluoro-ethylamino)-pyrido[3,2-d]pyrimidin-2-ylamino]-methyl}-benzenesulfonamide] | < 0.1 | 5 to 25
26 | NS(=O)(=O)c1ccc(CNc2nc(NCC(F)(F)F)c3nc(-c4ccc(F)nc4)ccc3n2)cc1 [Example 190, 4-{[6-(6-Fluoro-pyridin-3-yl)-4-(2,2,2-trifluoro-ethylamino)-pyrido[3,2-d]pyrimidin-2-ylamino]-methyl}-benzenesulfonamide] | < 0.1 | < 5
27 | NS(=O)(=O)c1ccc(CNc2nc(NCC(F)(F)F)c3nc(-c4ccc(N5CCCC5=O)cc4)ccc3n2)cc1 [Example 191, 4-{[6-[4-(2-Oxo-pyrrolidin-1-yl)-phenyl]-4-(2,2,2-trifluoro-ethylamino)-pyrido[3,2-d]pyrimidin-2-ylamino]-methyl}-benzenesulfonamide] | < 0.1 | < 5
